Where two headings read alike, the source gives them in different places.
Legend:
Format in all cases: binding
[1] = molecular target: T1, HeLa cell extract proteins (Homo sapiens, UniProt O95831); details: HeLa
T1 construct: endogenous in cells; host or cells: HeLa cell extract

[2] = molecular target: T2, HeLa cell extract proteins (Homo sapiens, UniProt P00441)
T2 construct: endogenous in cells; host or cells: HeLa cell extract

[3] = molecular target: T3, HeLa cell extract proteins (Homo sapiens, UniProt P30086)
T3 construct: endogenous in cells; host or cells: HeLa cell extract
T3 sequence (P30086 whole entry): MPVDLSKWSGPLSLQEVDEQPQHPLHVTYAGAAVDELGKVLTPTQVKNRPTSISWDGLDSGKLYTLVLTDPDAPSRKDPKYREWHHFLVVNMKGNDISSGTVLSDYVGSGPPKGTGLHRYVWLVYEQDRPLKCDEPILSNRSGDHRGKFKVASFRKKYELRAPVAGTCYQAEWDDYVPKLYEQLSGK

[4] = molecular target: T4, HeLa cell extract proteins (Homo sapiens, UniProt P31947)
T4 construct: endogenous in cells; host or cells: HeLa cell extract
T4 sequence (P31947 1-248): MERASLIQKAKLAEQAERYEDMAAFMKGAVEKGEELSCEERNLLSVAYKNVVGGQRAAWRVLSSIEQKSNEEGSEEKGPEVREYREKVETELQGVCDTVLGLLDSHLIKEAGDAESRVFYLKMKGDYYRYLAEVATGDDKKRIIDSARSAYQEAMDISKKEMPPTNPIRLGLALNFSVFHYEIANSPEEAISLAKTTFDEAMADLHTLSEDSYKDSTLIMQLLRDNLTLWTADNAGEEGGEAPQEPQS

[5] = molecular target: T5, HeLa cell extract proteins (Homo sapiens, UniProt P31948); details: protein STIP1; HeLa
T5 construct: endogenous in cells; host or cells: HeLa cell extract
T5 sequence (P31948 whole entry): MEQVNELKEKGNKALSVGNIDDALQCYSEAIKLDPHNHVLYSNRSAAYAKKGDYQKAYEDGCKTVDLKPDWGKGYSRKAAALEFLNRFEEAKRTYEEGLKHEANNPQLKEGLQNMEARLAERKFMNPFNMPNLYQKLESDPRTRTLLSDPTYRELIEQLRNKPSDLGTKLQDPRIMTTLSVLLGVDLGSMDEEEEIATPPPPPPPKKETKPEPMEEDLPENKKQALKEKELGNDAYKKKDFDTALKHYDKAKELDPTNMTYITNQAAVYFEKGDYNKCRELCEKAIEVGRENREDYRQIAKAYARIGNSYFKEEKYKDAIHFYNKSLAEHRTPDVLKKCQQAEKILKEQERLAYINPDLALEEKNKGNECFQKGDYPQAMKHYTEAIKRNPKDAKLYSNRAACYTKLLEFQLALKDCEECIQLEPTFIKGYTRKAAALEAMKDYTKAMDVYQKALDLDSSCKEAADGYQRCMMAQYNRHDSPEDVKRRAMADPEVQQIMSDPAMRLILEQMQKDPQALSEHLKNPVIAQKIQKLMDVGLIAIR

[6] = molecular target: T6, HeLa cell extract proteins (Homo sapiens, UniProt P32119); details: HeLa
T6 construct: endogenous in cells; host or cells: HeLa cell extract
T6 sequence (P32119 1-198): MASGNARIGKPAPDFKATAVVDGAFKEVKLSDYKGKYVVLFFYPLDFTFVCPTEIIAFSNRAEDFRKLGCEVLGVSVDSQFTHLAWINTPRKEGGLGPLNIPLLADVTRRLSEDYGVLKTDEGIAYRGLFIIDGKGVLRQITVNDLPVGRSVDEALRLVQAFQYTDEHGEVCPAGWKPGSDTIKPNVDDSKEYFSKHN

[7] = molecular target: T7, HeLa cell extract proteins (Homo sapiens, UniProt P40616); details: HeLa
T7 construct: endogenous in cells; host or cells: HeLa cell extract
T7 sequence (P40616 1-181): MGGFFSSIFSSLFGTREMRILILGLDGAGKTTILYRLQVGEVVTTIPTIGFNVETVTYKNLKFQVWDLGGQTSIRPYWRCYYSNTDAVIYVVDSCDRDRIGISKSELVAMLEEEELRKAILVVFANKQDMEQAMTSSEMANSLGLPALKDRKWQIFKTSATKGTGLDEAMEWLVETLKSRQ

[8] = molecular target: T8, HeLa cell extract proteins (Homo sapiens, UniProt P54136); details: HeLa
T8 construct: endogenous in cells; host or cells: HeLa cell extract
T8 sequence (P54136 1-660): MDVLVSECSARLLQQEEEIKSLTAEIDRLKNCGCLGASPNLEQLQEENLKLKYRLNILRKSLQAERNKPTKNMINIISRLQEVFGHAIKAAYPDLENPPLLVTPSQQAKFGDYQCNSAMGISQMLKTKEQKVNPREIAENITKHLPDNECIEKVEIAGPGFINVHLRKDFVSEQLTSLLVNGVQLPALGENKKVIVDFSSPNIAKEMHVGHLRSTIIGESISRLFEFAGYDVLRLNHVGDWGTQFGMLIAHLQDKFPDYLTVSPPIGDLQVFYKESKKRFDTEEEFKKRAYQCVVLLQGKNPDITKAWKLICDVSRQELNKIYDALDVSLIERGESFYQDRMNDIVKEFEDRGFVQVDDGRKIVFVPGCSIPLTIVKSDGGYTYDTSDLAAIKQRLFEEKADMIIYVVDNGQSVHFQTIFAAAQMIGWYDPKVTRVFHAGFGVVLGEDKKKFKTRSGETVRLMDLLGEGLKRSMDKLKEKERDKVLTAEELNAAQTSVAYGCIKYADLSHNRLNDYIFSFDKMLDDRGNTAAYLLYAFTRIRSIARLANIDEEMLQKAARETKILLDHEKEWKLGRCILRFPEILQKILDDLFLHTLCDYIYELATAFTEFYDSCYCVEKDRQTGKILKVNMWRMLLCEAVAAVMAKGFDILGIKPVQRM

[9] = molecular target: T9, HeLa cell extract proteins (Homo sapiens, UniProt P62633); details: HeLa
T9 construct: endogenous in cells; host or cells: HeLa cell extract
T9 sequence (P62633 whole entry): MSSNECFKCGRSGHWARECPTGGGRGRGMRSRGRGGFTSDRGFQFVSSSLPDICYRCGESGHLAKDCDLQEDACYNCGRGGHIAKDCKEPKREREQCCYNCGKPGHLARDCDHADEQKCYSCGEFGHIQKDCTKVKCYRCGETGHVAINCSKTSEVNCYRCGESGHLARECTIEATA

[10] = molecular target: T10, HeLa cell extract proteins (Homo sapiens, UniProt Q13263); details: protein TRIM28; HeLa
T10 construct: endogenous in cells; host or cells: HeLa cell extract
T10 sequence (Q13263 whole entry): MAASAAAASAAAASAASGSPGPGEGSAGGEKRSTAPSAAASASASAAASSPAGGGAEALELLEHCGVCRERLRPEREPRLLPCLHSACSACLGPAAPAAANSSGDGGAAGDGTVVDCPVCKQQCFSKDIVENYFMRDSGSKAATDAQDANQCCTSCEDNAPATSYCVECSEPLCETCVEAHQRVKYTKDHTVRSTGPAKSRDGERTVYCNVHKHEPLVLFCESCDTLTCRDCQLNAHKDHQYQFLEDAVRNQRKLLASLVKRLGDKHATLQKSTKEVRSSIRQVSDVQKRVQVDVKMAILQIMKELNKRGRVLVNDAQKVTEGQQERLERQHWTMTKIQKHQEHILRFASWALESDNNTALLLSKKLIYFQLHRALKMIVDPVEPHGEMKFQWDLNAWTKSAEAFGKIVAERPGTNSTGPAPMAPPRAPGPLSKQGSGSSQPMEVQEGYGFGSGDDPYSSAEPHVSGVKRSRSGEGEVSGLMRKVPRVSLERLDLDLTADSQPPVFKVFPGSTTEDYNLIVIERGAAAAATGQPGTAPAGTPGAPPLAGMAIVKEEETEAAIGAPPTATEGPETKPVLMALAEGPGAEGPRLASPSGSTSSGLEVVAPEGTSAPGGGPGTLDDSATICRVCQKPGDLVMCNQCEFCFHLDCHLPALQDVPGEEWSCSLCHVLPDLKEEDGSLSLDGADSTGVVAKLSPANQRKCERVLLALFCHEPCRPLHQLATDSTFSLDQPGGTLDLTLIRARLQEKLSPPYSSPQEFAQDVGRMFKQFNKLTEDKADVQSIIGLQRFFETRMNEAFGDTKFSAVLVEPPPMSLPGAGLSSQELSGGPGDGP

[11] = molecular target: T11, HeLa cell extract proteins (Homo sapiens, UniProt Q92973)
T11 construct: endogenous in cells; host or cells: HeLa cell extract
T11 sequence (Q92973 1-898): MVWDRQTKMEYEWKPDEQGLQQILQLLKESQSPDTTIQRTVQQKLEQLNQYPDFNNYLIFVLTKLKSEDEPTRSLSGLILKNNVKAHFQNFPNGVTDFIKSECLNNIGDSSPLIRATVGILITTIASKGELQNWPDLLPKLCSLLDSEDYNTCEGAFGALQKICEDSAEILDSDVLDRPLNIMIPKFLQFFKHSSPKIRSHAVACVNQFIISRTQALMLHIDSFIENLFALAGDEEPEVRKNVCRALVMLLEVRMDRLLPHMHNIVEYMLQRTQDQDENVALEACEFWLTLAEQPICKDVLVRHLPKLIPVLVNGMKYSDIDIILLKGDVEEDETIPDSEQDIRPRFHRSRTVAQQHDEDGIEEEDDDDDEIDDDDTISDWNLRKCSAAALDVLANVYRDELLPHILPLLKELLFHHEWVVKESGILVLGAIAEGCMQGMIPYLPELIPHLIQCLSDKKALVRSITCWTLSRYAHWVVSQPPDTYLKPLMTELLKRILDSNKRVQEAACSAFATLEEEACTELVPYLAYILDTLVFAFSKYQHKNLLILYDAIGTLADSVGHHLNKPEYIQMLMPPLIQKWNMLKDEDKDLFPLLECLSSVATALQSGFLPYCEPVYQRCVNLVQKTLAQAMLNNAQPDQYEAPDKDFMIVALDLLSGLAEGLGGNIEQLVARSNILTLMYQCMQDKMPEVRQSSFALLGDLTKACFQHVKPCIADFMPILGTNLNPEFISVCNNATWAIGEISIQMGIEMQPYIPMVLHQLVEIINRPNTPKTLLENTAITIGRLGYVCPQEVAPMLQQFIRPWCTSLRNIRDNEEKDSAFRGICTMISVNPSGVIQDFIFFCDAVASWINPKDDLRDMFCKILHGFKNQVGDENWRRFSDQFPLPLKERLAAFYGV

[12] = molecular target: T12, HeLa cell extract proteins (Homo sapiens, UniProt Q9BQA1)
T12 construct: endogenous in cells; host or cells: HeLa cell extract
T12 sequence (Q9BQA1 whole entry): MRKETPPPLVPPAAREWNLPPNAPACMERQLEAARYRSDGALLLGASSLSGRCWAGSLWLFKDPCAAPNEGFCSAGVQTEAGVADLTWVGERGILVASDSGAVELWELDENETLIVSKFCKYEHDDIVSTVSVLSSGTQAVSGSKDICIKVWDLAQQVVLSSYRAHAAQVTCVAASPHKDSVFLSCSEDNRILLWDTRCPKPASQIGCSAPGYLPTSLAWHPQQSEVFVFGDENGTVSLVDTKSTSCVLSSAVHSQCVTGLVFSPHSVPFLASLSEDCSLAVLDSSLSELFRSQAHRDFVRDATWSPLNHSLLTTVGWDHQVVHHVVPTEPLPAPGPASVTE

[13] = molecular target: T13, HeLa cell extract proteins (Homo sapiens, UniProt Q9H0N5)
T13 construct: endogenous in cells; host or cells: HeLa cell extract
T13 sequence (Q9H0N5 whole entry): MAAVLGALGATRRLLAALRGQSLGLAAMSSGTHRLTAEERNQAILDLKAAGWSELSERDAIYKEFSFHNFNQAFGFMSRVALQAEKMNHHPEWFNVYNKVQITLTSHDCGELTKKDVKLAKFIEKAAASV

T1 sequence (O95831 102-613): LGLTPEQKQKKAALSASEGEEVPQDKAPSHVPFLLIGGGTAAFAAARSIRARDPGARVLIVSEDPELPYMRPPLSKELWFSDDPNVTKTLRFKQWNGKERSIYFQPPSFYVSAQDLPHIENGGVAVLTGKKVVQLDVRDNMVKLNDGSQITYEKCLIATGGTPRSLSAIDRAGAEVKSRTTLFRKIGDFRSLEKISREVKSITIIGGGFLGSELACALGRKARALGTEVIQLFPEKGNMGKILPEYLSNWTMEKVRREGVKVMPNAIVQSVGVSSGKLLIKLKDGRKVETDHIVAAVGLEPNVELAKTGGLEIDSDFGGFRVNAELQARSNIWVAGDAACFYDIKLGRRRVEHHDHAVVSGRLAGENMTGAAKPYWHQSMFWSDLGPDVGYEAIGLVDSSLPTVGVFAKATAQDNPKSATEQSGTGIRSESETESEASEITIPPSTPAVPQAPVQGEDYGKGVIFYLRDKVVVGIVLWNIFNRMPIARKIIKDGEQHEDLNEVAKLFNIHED
T2 sequence (P00441 whole entry): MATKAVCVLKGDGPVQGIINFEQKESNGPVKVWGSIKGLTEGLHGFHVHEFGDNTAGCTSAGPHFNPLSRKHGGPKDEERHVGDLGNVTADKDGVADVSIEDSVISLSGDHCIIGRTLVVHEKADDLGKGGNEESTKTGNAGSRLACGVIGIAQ

Row | Structure (SMILES) | fold changes relative to vehicle control ([1]; captured protein AIFM1) | fold changes relative to vehicle control ([2]; protein SOD1; HeLa) | fold changes relative to vehicle control ([3]; protein PEBP1; HeLa) | fold changes relative to vehicle control ([4]; protein SFN; HeLa) | fold changes relative to vehicle control [5] | fold changes relative to vehicle control ([6]; protein PRDX2) | fold changes relative to vehicle control ([7]; captured protein ARL1) | fold changes relative to vehicle control ([8]; protein RARS) | fold changes relative to vehicle control ([9]; protein CNBP) | fold changes relative to vehicle control [10] | fold changes relative to vehicle control ([11]; protein TNPO1; HeLa) | fold changes relative to vehicle control ([12]; protein WDR77; HeLa) | fold changes relative to vehicle control ([13]; captured protein PCBD2; HeLa) | other results
1 | CCCCCCOc1ccc(Cc2cnc(N)nc2N)cc1 [compound 1] | 0.97 | 1.47 | 1.23 | 1.27 | 1.02 | 1.36 | 0.95 | 0.9 | 1.26 | 1.12 | 1.01 | 1.12 | 0.88 | –
2 | NCCCNc1ccc(C(=O)NC(CCC(=O)O)C(=O)O)cc1 (stereo not drawn) [compound 7] | – | – | – | – | 0.92 | – | – | – | – | 0.9 | – | – | – | fold changes relative to vehicle control ([1]; protein AIFM1): 1.06; fold changes relative to vehicle control ([2]; HeLa; protein SOD1): 1.08; fold changes relative to vehicle control ([3]; HeLa; protein PEBP1): 1.07; fold changes relative to vehicle control ([4]; HeLa; protein SFN): 0.97; fold changes relative to vehicle control ([6]; captured protein PRDX2): 0.89; fold changes relative to vehicle control ([7]; protein ARL1): 1.06; fold changes relative to vehicle control ([8]; captured protein RARS): 0.96; fold changes relative to vehicle control ([9]; captured protein CNBP): 1.04; fold changes relative to vehicle control ([11]; HeLa; protein TNPO1): 0.99; fold changes relative to vehicle control ([12]; HeLa; protein WDR77): 0.96; fold changes relative to vehicle control ([13]; HeLa; captured protein PCBD2): 1.14
3 | CCCCCCOc1cccc(Cc2cnc(N)nc2N)c1 [compound 2] | 1 | 2.11 | 1.9 | 1.83 | 1.49 | 2.19 | 1.09 | 1.19 | 1.8 | 1.44 | 1.1 | 1.33 | 0.77 | –
